Measured values published in patent publication US20240216392A1, “METHODS OF TREAMENT” (Arena Pharmaceuticals, Inc., priority 2022, published 2024).
Read-outs that look alike come from different tables or passages of the source.

Key:
[1] = test system: UGT metabolic pathway and renal transporters; details: single 12 mg dose with probenecid/cimetidine vs alone
[2] = Phase 1 multiple-dose study, plasma PK; format: in vivo, human; details: for half-life / Tmax / Cmax / AUC: both sexes, human, plasma, oral; for AUC: read-out: Plasma AUCtau, geometric mean (geometric CV %)
Experimental: Subjects were enrolled to 1 of 2 dosage regimens. Subject enrollment was stratified by sex to ensure approximate sex balance in each cohort.
(§1) Morning doses were administered following a standard light breakfast (e.g., milk and cereal, toast, and fruit) on all days. TID dosing (three times a day) was approximately 8 hours apart. Subjects fasted from midnight onwards, until the morning breakfast each day. There was no fluid restriction during the study, but subjects should not have consumed excessive amounts of fluid on any day.
The Phase 1, open-label, multiple-dose study of Example 1 was conducted for Cohorts 1-3, 4A, and 4B.
as §1, with “hours apart, and BID dosing (two times a day) was 12 hours” for “hours”, “were” for “should”, “to consume” for “have consumed”

C[C@H]1CN2CCNCc3ccc(C(=O)NCC(F)F)c1c32 [Compound 1, (R)—N-(2,2-difluoroethyl)-7-methyl-1,2,3,4,6,7-hexahydro-[1,4]diazepino[6,7,1-hi]indole-8-carboxamide]
increase in Compound 1 exposure [1]: ~80%
safety and tolerability (CYP3A4, CYP2D6, P-gp; alone or in combination with other probe substrates): safe and generally well-tolerated
substrate for CYP3A4, CYP2D6 or P-gp (CYP3A4, CYP2D6, P-gp; lack of effect of quinidine on exposure): not a substrate for CYP3A4, CYP2D6, or P-gp
average plasma concentrations over the dosing interval, comparability ([2]; Cohort 2 (12 mg TID) vs Cohort 4B (18 mg BID)): ~28%
Plasma Cavg, geometric mean (geometric CV %) ([2]; Day 8, Cohort 1 (6 mg TID)): 9.947 (2.6843) ng/mL
Plasma Ctrough, geometric mean (geometric CV %) ([2]; Day 8, Cohort 1 (6 mg TID)): 5.150 (1.6616) ng/mL
Plasma Cavg, geometric mean (geometric CV %) ([2]; Day 8, Cohort 2 (12 mg TID)): 26.19 (14.697) ng/mL
Plasma Ctrough, geometric mean (geometric CV %) ([2]; Day 8, Cohort 2 (12 mg TID)): 14.96 (9.9859) ng/mL
Plasma Cavg, geometric mean (geometric CV %) ([2]; Day 8, Cohort 3 (12 mg BID)): 14.42 (6.4875) ng/mL
Plasma Ctrough, geometric mean (geometric CV %) ([2]; Day 8, Cohort 3 (12 mg BID)): 4.892 (2.8780) ng/mL
Plasma Cavg, geometric mean (geometric CV %) ([2]; Day 8, Cohort 4A (15 mg BID)): 16.64 (4.4047) ng/mL
Plasma Ctrough, geometric mean (geometric CV %) ([2]; Day 8, Cohort 4A (15 mg BID)): 5.557 (2.3832) ng/mL
Plasma Cavg, geometric mean (geometric CV %) ([2]; Day 8, Cohort 4B (18 mg BID)): 20.62 (8.3690) ng/mL
Plasma Ctrough, geometric mean (geometric CV %) ([2]; Day 8, Cohort 4B (18 mg BID)): 7.427 (3.4830) ng/mL
Plasma Cavg, geometric mean (geometric CV %) ([2]; Day 9, Cohort 1 (6 mg TID)): 11.03 (3.3822) ng/mL
Plasma Ctrough, geometric mean (geometric CV %) ([2]; Day 9, Cohort 1 (6 mg TID)): 5.181 (1.9717) ng/mL
Plasma Cavg, geometric mean (geometric CV %) ([2]; Day 9, Cohort 2 (12 mg TID)): 27.22 (17.047) ng/mL
Plasma Ctrough, geometric mean (geometric CV %) ([2]; Day 9, Cohort 2 (12 mg TID)): 14.74 (13.800) ng/mL
Plasma Cavg, geometric mean (geometric CV %) ([2]; Day 9, Cohort 3 (12 mg BID)): 14.85 (6.1228) ng/mL
Plasma Ctrough, geometric mean (geometric CV %) ([2]; Day 9, Cohort 3 (12 mg BID)): 4.864 (2.7031) ng/mL
Plasma Cavg, geometric mean (geometric CV %) ([2]; Day 9, Cohort 4A (15 mg BID)): 17.84 (4.6403) ng/mL
Plasma Ctrough, geometric mean (geometric CV %) ([2]; Day 9, Cohort 4A (15 mg BID)): 6.497 (2.3570) ng/mL
Plasma Cavg, geometric mean (geometric CV %) ([2]; Day 9, Cohort 4B (18 mg BID)): 22.23 (10.604) ng/mL
Plasma Ctrough, geometric mean (geometric CV %) ([2]; Day 9, Cohort 4B (18 mg BID)): 7.066 (4.3229) ng/mL
Plasma Cavg, geometric mean (geometric CV %) ([2]; Day 10, Cohort 1 (6 mg TID)): 10.71 (2.8291) ng/mL
Plasma Ctrough, geometric mean (geometric CV %) ([2]; Day 10, Cohort 1 (6 mg TID)): 5.730 (1.7982) ng/mL
Plasma Cavg, geometric mean (geometric CV %) ([2]; Day 10, Cohort 2 (12 mg TID)): 27.73 (18.586) ng/mL
Plasma Ctrough, geometric mean (geometric CV %) ([2]; Day 10, Cohort 2 (12 mg TID)): 14.30 (11.743) ng/mL
Plasma Cavg, geometric mean (geometric CV %) ([2]; Day 10, Cohort 3 (12 mg BID)): 14.14 (6.2142) ng/mL
Plasma Ctrough, geometric mean (geometric CV %) ([2]; Day 10, Cohort 3 (12 mg BID)): 3.951 (2.4984) ng/mL
Plasma Cavg, geometric mean (geometric CV %) ([2]; Day 10, Cohort 4A (15 mg BID)): 16.70 (5.0410) ng/mL
Plasma Ctrough, geometric mean (geometric CV %) ([2]; Day 10, Cohort 4A (15 mg BID)): 4.372 ng/mL
Plasma Cavg, geometric mean (geometric CV %) ([2]; Day 10, Cohort 4B (18 mg BID)): 19.64 (6.8876) ng/mL
Plasma Ctrough, geometric mean (geometric CV %) ([2]; Day 10, Cohort 4B (18 mg BID)): 5.185 (2.4429) ng/mL
half-life ([2]; 3 mg, Day 1, single 3 mg dose, Cohort 1, read-out: apparent terminal half-life (converted)): 3.1 h
Tmax ([2]; 3 mg, Day 1, single 3 mg dose, Cohort 1, read-out: plasma Tmax, median): 1 h
Cmax ([2]; 3 mg, Day 1, single 3 mg dose, Cohort 1, read-out: plasma geometric mean Cmax): 4.7 ng/mL
half-life ([2]; 6 mg, Day 1, single 6 mg dose, Cohorts 2, 3, 4A, 4B, read-out: apparent terminal half-life (converted)): 3.1 to 3.3 h
Tmax ([2]; 6 mg, Day 1, single 6 mg dose, Cohorts 2, 3, 4A, 4B, read-out: plasma Tmax, median): 0.98 to 1.14 h
Cmax ([2]; 6 mg, Day 1, single 6 mg dose, Cohorts 2, 3, 4A, 4B, read-out: plasma geometric mean Cmax): 7.8 to 12.4 ng/mL
AUC ([2]; 6 mg, Day 8, Cohort 1 (6 mg TID)): 77.1 ng·h/mL
Cmax ([2]; 6 mg, Day 8, Cohort 1 (6 mg TID), read-out: Plasma Cmax, geometric mean (geometric CV %)): 16.6 ng/mL
half-life ([2]; 6 mg, Day 8, Cohort 1 (6 mg TID), read-out: Plasma T1/2, mean (SD) (converted)): 4.49 h
Tmax ([2]; 6 mg, Day 8, Cohort 1 (6 mg TID), read-out: Plasma Tmax, median (minimum, maximum)): 1.54 h
AUC ([2]; 6 mg, Day 9, Cohort 1 (6 mg TID)): 84.9 ng·h/mL
Cmax ([2]; 6 mg, Day 9, Cohort 1 (6 mg TID), read-out: Plasma Cmax, geometric mean (geometric CV %)): 18.4 ng/mL
half-life ([2]; 6 mg, Day 9, Cohort 1 (6 mg TID), read-out: Plasma T1/2, mean (SD) (converted)): 3.85 h
Tmax ([2]; 6 mg, Day 9, Cohort 1 (6 mg TID), read-out: Plasma Tmax, median (minimum, maximum)): 0.94 h
AUC ([2]; 6 mg, Day 10, Cohort 1 (6 mg TID)): 82.6 ng·h/mL
Cmax ([2]; 6 mg, Day 10, Cohort 1 (6 mg TID), read-out: Plasma Cmax, geometric mean (geometric CV %)): 16.5 ng/mL
half-life ([2]; 6 mg, Day 10, Cohort 1 (6 mg TID), read-out: Plasma T1/2, mean (SD) (converted)): 4.63 h
Tmax ([2]; 6 mg, Day 10, Cohort 1 (6 mg TID), read-out: Plasma Tmax, median (minimum, maximum)): 1.03 h
AUC ([2]; 12 mg, Day 8, Cohort 2 (12 mg TID)): 190 ng·h/mL
Cmax ([2]; 12 mg, Day 8, Cohort 2 (12 mg TID), read-out: Plasma Cmax, geometric mean (geometric CV %)): 36.7 ng/mL
half-life ([2]; 12 mg, Day 8, Cohort 2 (12 mg TID), read-out: Plasma T1/2, mean (SD) (converted)): 4.74 h
